According to the supplement of paper PMC10307832:

What was measured:
Assay in all cases: relative viability (nuclei count vs DMSO), 5 days (fraction); higher = more cells survive
NCI-H460 = system: NCI-H460
Summary of the method: (§1)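 Lung cancer cell lines were pin-tool dosed in 1536-well plates on the day after seeding, with either a lone drug or a fixed anchor-drug dose plus five library-drug doses (not always all listed) in √10 steps. Nuclei were counted on 4× images after 5 days. Relative viability is the ratio of treated-well to vehicle-well nuclei counts, with each value a median of duplicate plates.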

NCI-H1915 = system: NCI-H1915
Summary of the method: as §1

LCLC-97TM1 = system: LCLC-97TM1
Summary of the method: as §1

SK-LU-1 = system: SK-LU-1
Summary of the method: as §1

A-427 = system: A-427
Summary of the method: as §1

LOU-NH91 = system: LOU-NH91
Summary of the method: as §1

NCI-H2126 = system: NCI-H2126
Summary of the method: as §1

NCI-H441 = system: NCI-H441
Summary of the method: as §1

BEN = system: BEN
Summary of the method: as §1

NCI-H322M = system: NCI-H322M
Summary of the method: as §1

NCI-H1755 = system: NCI-H1755
Summary of the method: as §1

NCI-H1944 = system: NCI-H1944
Summary of the method: as §1

O=c1[nH]c2ccccc2n1C1CCN(CCCC(c2ccc(F)cc2)c2ccc(F)cc2)CC1 [Pimozide] + N=C(N)NC(=N)NCCc1ccccc1 [Phenformin] (partner 250 µM)
relative viability (NCI-H460; first compound 2.53 µM): 0.516
relative viability (NCI-H460; first compound 8 µM): 0.492
relative viability (NCI-H1915; first compound 0.08 µM): 0.363
relative viability (NCI-H1915; first compound 0.253 µM): 0.349
relative viability (NCI-H1915; first compound 0.8 µM): 0.349
relative viability (NCI-H1915; first compound 2.53 µM): 0.366
relative viability (NCI-H1915; first compound 8 µM): 0.367
relative viability (LCLC-97TM1; first compound 0.08 µM): 0.487
relative viability (LCLC-97TM1; first compound 0.253 µM): 0.403
relative viability (LCLC-97TM1; first compound 0.8 µM): 0.356
relative viability (LCLC-97TM1; first compound 2.53 µM): 0.418
relative viability (LCLC-97TM1; first compound 8 µM): 0.413
relative viability (SK-LU-1; first compound 0.08 µM): 0.559
relative viability (SK-LU-1; first compound 0.253 µM): 0.533
relative viability (SK-LU-1; first compound 0.8 µM): 0.558
relative viability (SK-LU-1; first compound 2.53 µM): 0.532
relative viability (SK-LU-1; first compound 8 µM): 0.415
relative viability (A-427; first compound 0.08 µM): 0.368
relative viability (A-427; first compound 0.253 µM): 0.361
relative viability (A-427; first compound 0.8 µM): 0.36
relative viability (A-427; first compound 2.53 µM): 0.238
relative viability (A-427; first compound 8 µM): 0.26
relative viability (LOU-NH91; first compound 0.08 µM): 0.43
relative viability (LOU-NH91; first compound 0.253 µM): 0.702
relative viability (LOU-NH91; first compound 0.8 µM): 0.677
relative viability (LOU-NH91; first compound 2.53 µM): 0.79
relative viability (LOU-NH91; first compound 8 µM): 0.581
relative viability (NCI-H2126; first compound 0.08 µM): 0.513
relative viability (NCI-H2126; first compound 0.253 µM): 0.519
relative viability (NCI-H2126; first compound 0.8 µM): 0.464
relative viability (NCI-H2126; first compound 2.53 µM): 0.525
relative viability (NCI-H2126; first compound 8 µM): 0.584
relative viability (NCI-H441; first compound 0.08 µM): 0.96
relative viability (NCI-H441; first compound 0.253 µM): 0.758
relative viability (NCI-H441; first compound 0.8 µM): 0.767
relative viability (NCI-H441; first compound 2.53 µM): 0.783
relative viability (NCI-H441; first compound 8 µM): 0.825
relative viability (BEN; first compound 0.08 µM): 0.278
relative viability (BEN; first compound 0.253 µM): 0.274
relative viability (BEN; first compound 0.8 µM): 0.258
relative viability (BEN; first compound 2.53 µM): 0.289
relative viability (BEN; first compound 8 µM): 0.3
relative viability (NCI-H322M; first compound 0.253 µM): 0.738
relative viability (NCI-H322M; first compound 0.8 µM): 0.766
relative viability (NCI-H322M; first compound 2.53 µM): 0.816
relative viability (NCI-H322M; first compound 8 µM): 0.749
relative viability (NCI-H1755; first compound 0.08 µM): 0.585
relative viability (NCI-H1755; first compound 0.253 µM): 0.587
relative viability (NCI-H1755; first compound 0.8 µM): 0.574
relative viability (NCI-H1755; first compound 2.53 µM): 0.64
relative viability (NCI-H1755; first compound 8 µM): 0.538
relative viability (NCI-H1944; first compound 0.08 µM): 0.191
relative viability (NCI-H1944; first compound 0.253 µM): 0.197
relative viability (NCI-H1944; first compound 0.8 µM): 0.187
relative viability (NCI-H1944; first compound 2.53 µM): 0.184
relative viability (NCI-H1944; first compound 8 µM): 0.198
